Earlier results in patent US20050255458A1, “Drug discovery assays based on the biology of chronic disease” (priority 2002, published 2005).
Where two headings read alike, the source gives them in different places. Where a SMILES comes first, the peptide text is derived from it. [ ]: non-standard residue; d: D form. Aoe = N[C@@H](CCCCCC(=O)[C@@H]1CO1)C(=O)O

What was measured:
anagen hair follicles = conditions: cited from earlier work; for scalp hair growth: Philpott 1996
TF = conditions: cited from earlier work; for effect on Cu^+2 induced procoagulant activity: probucol 20, vitamin E 50, BHT 50, U74389G 20 μmol/L
AR gene = conditions: cited from earlier work
Rb = conditions: cited from earlier work; for increase in Rb mRNA: MEL cells, maximum on day three of induction
ERK1/2 = conditions: cited studies, various cells; cited from earlier work
ERK [1] = conditions: cited from earlier work
ACE [2] = target: T1, ACE (Oryctolagus cuniculus, UniProt P12822); conditions: cited from earlier work
T1 construct: from tissue; host or cells: whole animal, in vivo (Watanabe rabbit)
T1 sequence (P12822 34-1310): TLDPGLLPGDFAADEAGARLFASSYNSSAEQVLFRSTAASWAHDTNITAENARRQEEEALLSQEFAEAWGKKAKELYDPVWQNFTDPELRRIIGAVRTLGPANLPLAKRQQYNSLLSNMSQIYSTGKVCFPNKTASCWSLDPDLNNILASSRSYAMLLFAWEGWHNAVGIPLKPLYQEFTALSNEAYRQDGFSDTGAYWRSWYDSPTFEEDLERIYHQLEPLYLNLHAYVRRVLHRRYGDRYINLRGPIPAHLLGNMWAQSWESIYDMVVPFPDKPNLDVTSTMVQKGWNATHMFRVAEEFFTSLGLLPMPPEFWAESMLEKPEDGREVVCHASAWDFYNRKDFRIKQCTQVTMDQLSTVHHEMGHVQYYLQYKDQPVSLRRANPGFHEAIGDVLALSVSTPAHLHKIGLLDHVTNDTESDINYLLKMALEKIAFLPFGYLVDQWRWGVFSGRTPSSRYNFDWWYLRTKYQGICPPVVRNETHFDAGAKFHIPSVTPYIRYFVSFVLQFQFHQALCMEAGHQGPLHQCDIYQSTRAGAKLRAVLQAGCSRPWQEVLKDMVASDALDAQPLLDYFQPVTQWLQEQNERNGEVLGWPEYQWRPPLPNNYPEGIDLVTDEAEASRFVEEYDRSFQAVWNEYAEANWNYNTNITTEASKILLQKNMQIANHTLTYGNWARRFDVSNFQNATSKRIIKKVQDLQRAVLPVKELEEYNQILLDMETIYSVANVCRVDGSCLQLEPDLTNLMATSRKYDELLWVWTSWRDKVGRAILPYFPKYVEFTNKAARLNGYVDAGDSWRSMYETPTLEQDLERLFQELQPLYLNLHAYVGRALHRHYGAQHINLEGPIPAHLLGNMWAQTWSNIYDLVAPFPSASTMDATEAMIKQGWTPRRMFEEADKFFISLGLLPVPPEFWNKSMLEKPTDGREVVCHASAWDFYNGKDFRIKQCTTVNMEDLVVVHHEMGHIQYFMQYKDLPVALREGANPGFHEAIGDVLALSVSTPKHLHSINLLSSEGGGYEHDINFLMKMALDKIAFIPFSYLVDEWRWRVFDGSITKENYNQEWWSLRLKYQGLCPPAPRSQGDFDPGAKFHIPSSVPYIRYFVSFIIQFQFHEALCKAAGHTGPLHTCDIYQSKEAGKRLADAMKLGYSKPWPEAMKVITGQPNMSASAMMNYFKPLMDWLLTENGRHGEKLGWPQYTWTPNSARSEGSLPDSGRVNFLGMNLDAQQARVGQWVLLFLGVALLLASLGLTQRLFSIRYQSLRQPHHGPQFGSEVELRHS

ACE [3] = target: T2, ACE (Mus musculus, UniProt P09470); conditions: cited from earlier work
T2 sequence (P09470 35-1312): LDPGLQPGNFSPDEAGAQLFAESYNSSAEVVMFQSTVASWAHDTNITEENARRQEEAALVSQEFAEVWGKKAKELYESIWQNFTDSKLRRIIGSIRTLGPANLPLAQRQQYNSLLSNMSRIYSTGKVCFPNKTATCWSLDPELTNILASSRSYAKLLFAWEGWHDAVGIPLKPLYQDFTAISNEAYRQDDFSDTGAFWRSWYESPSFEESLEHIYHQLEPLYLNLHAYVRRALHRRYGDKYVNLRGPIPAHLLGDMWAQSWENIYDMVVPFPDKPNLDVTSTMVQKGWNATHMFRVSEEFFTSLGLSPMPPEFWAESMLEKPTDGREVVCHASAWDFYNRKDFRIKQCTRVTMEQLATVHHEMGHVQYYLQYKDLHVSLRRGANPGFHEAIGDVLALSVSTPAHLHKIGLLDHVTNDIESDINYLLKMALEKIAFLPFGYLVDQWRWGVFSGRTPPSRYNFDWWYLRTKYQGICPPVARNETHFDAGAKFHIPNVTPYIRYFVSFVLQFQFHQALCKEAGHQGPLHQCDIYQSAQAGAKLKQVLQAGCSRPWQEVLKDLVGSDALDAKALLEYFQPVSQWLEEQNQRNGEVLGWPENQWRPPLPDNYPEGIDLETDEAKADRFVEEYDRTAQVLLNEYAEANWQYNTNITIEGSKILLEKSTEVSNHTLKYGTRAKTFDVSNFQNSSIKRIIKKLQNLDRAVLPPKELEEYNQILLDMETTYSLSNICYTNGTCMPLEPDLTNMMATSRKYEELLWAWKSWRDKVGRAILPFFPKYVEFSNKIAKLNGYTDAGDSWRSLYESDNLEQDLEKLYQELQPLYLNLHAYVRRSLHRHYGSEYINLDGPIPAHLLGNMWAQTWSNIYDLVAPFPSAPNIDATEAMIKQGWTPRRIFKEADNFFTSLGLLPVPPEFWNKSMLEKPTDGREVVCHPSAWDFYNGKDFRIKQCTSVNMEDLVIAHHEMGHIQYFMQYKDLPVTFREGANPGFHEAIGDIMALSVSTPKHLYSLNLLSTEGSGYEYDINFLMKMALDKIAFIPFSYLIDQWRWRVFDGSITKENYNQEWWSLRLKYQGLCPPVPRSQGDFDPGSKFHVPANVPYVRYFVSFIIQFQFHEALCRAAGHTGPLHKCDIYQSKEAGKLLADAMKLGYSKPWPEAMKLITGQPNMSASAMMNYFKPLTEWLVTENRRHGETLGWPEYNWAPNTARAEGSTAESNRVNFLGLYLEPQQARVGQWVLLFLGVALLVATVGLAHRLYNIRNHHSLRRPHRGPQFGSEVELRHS

[4] = system: obese (fa/fa) Zucker rats; conditions: cited from earlier work
ERK [5] = conditions: A variety of cell types; cited from earlier work

CNc1ccc2oc(C[C@H]3O[C@@]4(CC[C@H]3C)O[C@H]([C@H](C)C(=O)c3ccc[nH]3)[C@H](C)C[C@H]4C)nc2c1C(=O)O [A 23187]
hair growth (anagen hair follicles; 6 days culture, A 23187 2 μM, TPA 1 μM, IL-1 100 ng per ml (Hoffmann 1997)): significantly inhibited hair growth

Cc1cc(C(C)(C)C)c(O)c(C(C)(C)C)c1 [BHT]
effect on Cu^+2 induced procoagulant activity (TF): inhibited the Cu^+2 induced procoagulant activity

[Cu+2] [Cu+2]
TF mRNA level (TF; at 2 hours): 50%
increase of TF mRNA (TF; at 6 hours): 3.5 fold

CC(=O)O[C@]1(C(C)=O)CC[C@H]2[C@@H]3C=C(Cl)C4=CC(=O)[C@@H]5C[C@@H]5[C@]4(C)[C@H]3CC[C@@]21C [Cyproterone acetate]
Effect on [mRNAAR] (AR gene; LNCaP): ↓[mRNAAR]

C[S+](C)[O-] [DMSO, dimethyl sulfoxide]
increase in Rb mRNA (Rb): 11 fold

CC(=O)NCCCCCCNC(C)=O [HMBA, hexamethylene bisacetamide]
cells irreversibly committed to differentiate (Rb; DS19/Sc9, 48 h of culture): Over 90%
increase in Rb transcription (Rb; DS19/Sc9): 3.6 fold
increase in total pRb (Rb; DS19/Sc9 asynchronous cultures): 2-to 3 fold
increase in Rb mRNA (Rb): 7 fold

C[C@]12C=CC(=O)C=C1CC[C@@H]1C2=CC[C@]2(C)[C@@H](C(=O)CN3CCN(c4cc(N5CCCC5)nc(N5CCCC5)n4)CC3)CC[C@@H]12.O=C(O)/C=C\C(=O)O [U74389G]
effect on Cu^+2 induced procoagulant activity (TF): inhibited the Cu^+2 induced procoagulant activity

[Cu] [copper]
phosphorylation of ERK1/2 (ERK1/2): phosphorylation of ERK1/2

CC[C@H]1CN2CCc3cc(OC)c(OC)cc3[C@@H]2C[C@@H]1C[C@H]1NCCc2cc(OC)c(OC)cc21 [emetine]
c-mos expression and ERK phosphorylation (ERK [1]; starfish eggs): inhibition of c-mos expression and ERK phosphorylation

C[C@]12CC[C@@H]3c4ccc(O)cc4CC[C@H]3[C@@H]1CCC2=O [estron]
phosphorylation of ERK1/2 (ERK1/2): phosphorylation of ERK1/2

CC[C@H](C)[C@@H]1NC(=O)[C@H](Cc2ccc(O)cc2)NC(=O)[C@@H](N)CSSC[C@@H](C(=O)N2CCC[C@H]2C(=O)N[C@@H](CC(C)C)C(=O)NCC(N)=O)NC(=O)[C@H](CC(N)=O)NC(=O)[C@H](CCC(N)=O)NC1=O [oxytocin]
phosphorylation of ERK1/2 (ERK1/2): phosphorylation of ERK1/2

CC(C)(Sc1cc(C(C)(C)C)c(O)c(C(C)(C)C)c1)Sc1cc(C(C)(C)C)c(O)c(C(C)(C)C)c1 [probucol]
effect on Cu^+2 induced procoagulant activity (TF): inhibited the Cu^+2 induced procoagulant activity

C/C=C(/C)C(=O)O[C@H]1C(C)=C2[C@H]([C@@H]1OC(=O)CCCCCCC)[C@@](C)(OC(C)=O)C[C@H](OC(=O)CCC)[C@@]1(O)[C@H]2OC(=O)[C@@]1(C)O [thapsigargin]
phosphorylation of ERK1/2 (ERK1/2): phosphorylation of ERK1/2

O=C1N[C@@H](Cc2ccccc2)C(=O)N2CCC[C@@H]2C(=O)N[C@@H](CCCCCC(=O)[C@@H]2CO2)C(=O)N[C@H]1Cc1ccccc1 [trapoxin] (cyclo(FF[dP][Aoe]))
phosphorylation of ERK1/2 (ERK1/2): phosphorylation of ERK1/2

CC(/C=C/C(=O)NO)=C\[C@@H](C)C(=O)c1ccc(N(C)C)cc1 [trichostatin A]
phosphorylation of ERK1/2 (ERK1/2): phosphorylation of ERK1/2

[Zn] [zinc]
phosphorylation of ERK1/2 (ERK1/2): phosphorylation of ERK1/2

C[C@H](CSC(=O)c1ccccc1)C(=O)N1C[C@@H](Sc2ccccc2)C[C@H]1C(=O)O [zofenopril]
decrease of aortic corrected cumulative lesion area (ACE [2]; 0.5 mg/kg/day, 6 weeks): 34%
decrease of common carotid corrected cumulative lesion area (ACE [2]; 0.5 mg/kg/day, 6 weeks): 39%
intimal presence of native LDL (ACE [2]; p<0.01 vs placebo): decreased
intimal presence of macrophage derived foam cells (ACE [2]; p<0.05 vs placebo): decreased
macrophage-derived foam cells staining in the intima (ACE [3]; 1 mg/kg/day): significant decrease in macrophage-derived foam cells staining
native LDL staining in the intima (ACE [3]; 1 mg/kg/day): significant decrease in native LDL staining
total lesion area compared to placebo (ACE [3]; zofenopril 0.05 or 1, captopril 5, enalapril 0.5 mg/kg/day, 29 weeks): significantly decreased total lesion area

IL-β: printed IL-β, presumably IL-1β
scalp hair growth (anagen hair follicles): inhibition of scalp hair growth

TNFα
decrease of nighttime feeding (12 hours) ([4]; 50 ng/rat): 13%
decrease of short-term feeding (4 hours) ([4]; 50 ng/rat): 17%
decrease of total daily food intake ([4]; 50 ng/rat): 11%
decrease of nighttime feeding (12 hours) ([4]; 100 ng/rat): 14%
decrease of short-term feeding (4 hours) ([4]; 100 ng/rat): 20%
decrease of total daily food intake ([4]; 100 ng/rat): 12%
decrease of nighttime feeding (12 hours) ([4]; 500 ng/rat): 13%
decrease of short-term feeding (4 hours) ([4]; 500 ng/rat): 20%
decrease of total daily food intake ([4]; 500 ng/rat): 11%
Effect on [ERK^phos] (ERK [5]): ↑[ERK^phos]
AR transcription in run-on assays (AR gene; LNCaP): No change in run-on
Effect on [mRNAAR] (AR gene; LNCaP): ↓[mRNAAR]
scalp hair growth (anagen hair follicles): inhibition of scalp hair growth

estrogen
growth of isolated hair follicles (anagen hair follicles; Kondo 1990): growth inhibition

interferon-γ: ERK agent cytokine
phosphorylation of ERK1/2 (ERK1/2): phosphorylation of ERK1/2

interleukin 1β: cytokine, ERK agent
phosphorylation of ERK1/2 (ERK1/2): phosphorylation of ERK1/2

interleukin 6: cytokine, ERK agent
phosphorylation of ERK1/2 (ERK1/2): phosphorylation of ERK1/2
ERK phosphorylation (ERK [1]; AF-10 human B cell line): increased ERK phosphorylation
ERK phosphorylation (ERK [1]; LNCaP cells): increased ERK phosphorylation
AR mRNA (AR gene; LNCaP (Lin 2001)): decreased AR mRNA

transforming growth factor β
phosphorylation of ERK1/2 (ERK1/2): phosphorylation of ERK1/2

tumor necrosis factor α
phosphorylation of ERK1/2 (ERK1/2): phosphorylation of ERK1/2
